{"source": "patent US20070254843A1", "about": "“Methods for treating bone associated diseases by the use of methionine aminopeptidase-2 inhibitors” (Praecis Pharmaceuticals Incorporated, priority 2006, published 2007)", "key": {"[1]": {"target": "T1, MetAP-2 (Rattus norvegicus, UniProt P38062)", "T1 construct": "wbc from animals of each study group were pooled and cell lysates were prepared as previously described; from tissue; host or cells: white blood cells (wbc) of female Lewis rats, pooled per study group and lysed", "T1 sequence (P38062 whole entry)": "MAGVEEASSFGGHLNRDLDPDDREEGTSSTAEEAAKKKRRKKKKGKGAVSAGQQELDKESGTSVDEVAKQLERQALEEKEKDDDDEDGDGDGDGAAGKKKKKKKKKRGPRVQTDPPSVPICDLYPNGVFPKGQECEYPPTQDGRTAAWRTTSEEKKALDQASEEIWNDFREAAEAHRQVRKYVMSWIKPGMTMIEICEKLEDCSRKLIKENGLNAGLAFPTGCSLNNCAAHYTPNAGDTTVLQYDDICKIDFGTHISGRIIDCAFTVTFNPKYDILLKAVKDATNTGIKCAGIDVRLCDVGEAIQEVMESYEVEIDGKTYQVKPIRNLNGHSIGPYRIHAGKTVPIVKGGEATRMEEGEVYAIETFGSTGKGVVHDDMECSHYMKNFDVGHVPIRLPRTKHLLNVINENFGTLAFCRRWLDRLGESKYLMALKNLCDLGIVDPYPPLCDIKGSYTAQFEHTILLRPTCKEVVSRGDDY", "experiment": "MetAP-2 pharmacodynamic assay in wbc lysates", "format": "in vivo", "conditions": "po, PG-PS arthritis rats, read-out: MetAP-2 in wbc inhibited relative to vehicle-treated group", "experimental": "MetAP-2 pharmacodynamic assay. The MetAP-2 assay measures the amount of uninhibited MetAP-2 in cells or tissues which has not been derivitized by prior treatment with the MetAP-2 inhibitor (Bernier (2004) Proc. Natl. Acad. Sci. USA 101: 10768-10773 and Bernier (2005) J. Cell. Biochem. 95: 1191-1203). Briefly, wbc from animals of each study group were pooled and cell lysates were prepared as previously described (Bernier (2004) Proc. Natl. Acad. Sci. USA 101: 10768-10773 and Bernier (2005) J. Cell. Biochem. 95: 1191-1203). 10 μg to 20 μg of wbc protein was incubated with a biotinylated analog of the MetAP-2 inhibitor which covalently binds to the catalytic site of MetAP-2. The biotinylated MetAP-2-inhibitor complex was captured on a plate with immobilized streptavidin (Pierce), and detected with the MetAP-2 antibody CM33 (0.5 μg/ml), followed by horseradish peroxidase-conjugated goat anti-rabbit IgG secondary antibody. The amount of uninhibited MetAP-2 was determined by measuring the absorption at 450 nm using a Labsystems Multiskan plate spectrophotometer. Human recombinant MetAP-2 (Mediomics), pre-bound to the biotinylated MetAP-2 inhibitor, was used to generate the standard curve. The detection limit of this assay was 0.47 ng MetAP-2 protein/mg wbc protein.\nSince the MetAP-2 inhibitor had the ability to inhibit multiple cell types critical for pathogenesis of the bone associated disease, RA, in vitro, it was hypothesized that the observations from the in vitro studies (Example 1) would translate into protection from disease in animals in the PG-PS model of arthritis. The progression of disease in this model follows a biphasic mode, with an early acute, predominantly neutrophil-driven phase which persists to days 6-7, followed by a chronic, T cell dependent phase (evident around day 12), which is characterized by chronic inflammation and erosive synovitis (Palombella (1998) Proc. Natl. Acad. Sci. USA 95:15671-15676). Therapeutic dosing of animals administered the MetAP-2 inhibitor orally (p.o.) at 1, 5 and 10 mg/kg, every other day (qod), or vehicle started at day 15 after the chronic destructive phase of the disease was established and terminated on day 31. […] The amount of uninhibited MetAP-2 in wbc of animals from all treatment groups was measured after conclusion of the study, using the MetAP-2 pharmacodynamic assay (Bernier (2004) Proc. Natl. Acad. Sci. USA 101: 10768-10773 and Bernier (2005) J. Cell. Biochem. 95: 1191-1203). […]"}, "[2]": {"tested_on": "CTX-I", "experiment": "Urinary CTX-I ELISA in rat PG-PS arthritis model", "format": "in vivo", "conditions": "1, 5 and 10 mg/kg p.o. qod", "experimental": "(§1) ELISAs for cartilage and bone biochemical turnover markers. The amount of COMP in serum was measured with a competitive enzyme immunoassay (MD Biosciences, Inc) according to the manufacturer's instructions. The detection limit of this ELISA was 0.2 U/L. Helical peptide (amino acids 620 to 633) from the α1 chain of bone-specific human CTX-I was measured either in cell culture supernatants of primary human OC precursors cultured as described above, or in urine with a competitive enzyme immunoassay (Quidel Corporation). The detection limit of this ELISA was 8 μg/L. All CTX-I measurements in urine were corrected for urinary creatinine excretion for each sample to account for potential differences in renal clearance rates among the different study groups. Urinary creatinine was measured with a colorimetric assay (Quidel Corporation).\nTo assess the activity of the MetAP-2 inhibitor on systemic bone resorption in vivo, the amount of systemic CTX-I in urine was measured and corrected for urinary creatinine excretion after conclusion of the study."}, "[3]": {"tested_on": "HFLS-R^A", "conditions": "100 nM; cited from earlier work"}, "[4]": {"tested_on": "primary human OC precursors", "experiment": "Cytotoxicity in OC precursor culture", "format": "cell-based", "conditions": "concentrations up to 100 nM", "experimental": "The instant invention features such an inhibitor. In order to investigate the activity of the MetAP-2 inhibitor on osteoclast (OC) differentiation and bone resorption in vitro, yet another cell type critically associated with R^A pathogenesis in an in vitro osteoclastogenesis model was utilized. Primary human OC precursors were cultured for 7 days in the presence of M-CSF and RANKL, and vehicle or increasing concentrations of the MetAP-2 inhibitor."}, "[5]": {"tested_on": "PG-PS-induced arthritis", "experiment": "Rat model of PG-PS induced arthritis, paw swelling", "format": "in vivo", "conditions": "1, 5 and 10 mg/kg p.o. qod, day 15 to 31, versus vehicle", "protocol": "Rat model of PG-PS induced arthritis. Female Lewis rats (109-130 g) were received from Charles River Laboratories. Food and water were available ad libitum. PG-PS (25 mg/kg) was injected i.p. on day 1 and responding animals were randomized into treatment groups on day 14. Vehicle (11% HPCD in PBS), dex and the MetAP-2 inhibitor (1, 5, and 10 mg/kg) were administered p.o., qod. Paw swelling was monitored using a plethysmometer (Stoelting Co., Woodale, Ill.) according to instrument specifications. The volumes of the two hind paws were measured and averaged on day 1, 4, 6, 8, 10, 13, 15, 17, 20, 22, 23, 27, 29 and 31. Ten animals were assigned to each group except the vehicle group and animals which received no PG-PS, but 10 mg/kg MetAP-2 inhibitor (n=4)."}, "[6]": {"tested_on": "primary human OC cultured on human bone particles", "experiment": "Bone resorption in vitro, CTX-I ELISA of culture supernatant", "format": "cell-based", "experimental": "as §1\nTo determine whether the inhibition of OC differentiation by the MetAP-2 inhibitor in vitro correlated with the inhibition of bone resorption in vitro, primary human OC were cultured on a thin layer of human bone particles in the presence of M-CSF and RANKL, and vehicle or increasing concentrations of the MetAP-2 inhibitor. […] After 7 days, the culture supernatant was collected and the amount of bone-specific collagen type I C-terminal helical peptide (CTX-I) was measured by ELISA."}, "[7]": {"tested_on": "HUVEC", "conditions": "100 nM; cited from earlier work"}}}
{"molecule": "CO[C@@H]1[C@H](OC(=O)N[C@@H](C(N)=O)C(C)C)CC[C@]2(CO2)[C@H]1[C@@]1(C)O[C@@H]1CC=C(C)C", "note": "[MetAP-2 inhibitor, (1-Carbamoyl-2-methyl-propyl)-carbamic acid-(3R,4S,5S,6R)-5-methoxy-4-[(2R,3R)-2-methyl-3-(3-methyl-but-2-enyl)-oxiranyl]-1-oxa-spiro[2,5]oct-6-yl ester]", "values": [{"measurement": "inhibition at 1 mg/kg", "setting": "[1]; 1 mg/kg p.o. qod", "result": "≥ 60", "unit": "%"}, {"measurement": "inhibition at 5 mg/kg", "setting": "[1]; 5 mg/kg p.o. qod", "result": "≥ 95", "unit": "%"}, {"measurement": "inhibition at 10 mg/kg", "setting": "[1]; 10 mg/kg p.o. qod", "result": "≥ 95", "unit": "%"}, {"measurement": "systemic urinary CTX-I levels corrected for creatinine, versus vehicle", "setting": "[2]", "result": "significantly decreased"}, {"measurement": "induction of apoptosis in HFLS-RA", "setting": "[3]", "result": "did not induce apoptosis"}, {"measurement": "cytotoxicity", "setting": "[4]", "result": "did not induce cytotoxicity"}, {"measurement": "joint swelling and inflammation, paw swelling of the hind limbs", "setting": "[5]", "result": "significant amelioration"}, {"measurement": "IC50", "setting": "[6]; 168 h, 7 days, M-CSF and RANKL, human bone particles, read-out: IC50, bone resorbing activity of OC (CTX-I)", "result": "≤ 0.1", "unit": "nM"}, {"measurement": "degree of inhibition of bone resorption", "setting": "[6]; at 1 nM and 10 nM, versus E-64 at 100 nM", "result": "comparable to the inhibitory activity of E-64 at 100 nM"}, {"measurement": "induction of apoptosis in HUVEC", "setting": "[7]", "result": "did not induce apoptosis"}]}
